Columns and labels:
[1] = target: T1, yeast α-glucosidase (Saccharomyces cerevisiae, UniProt P53341); experiment: In vitro α-glucosidase inhibition assay; type: biochemical; conditions: for potency relative to acarbose: fold more potent than acarbose, from IC50 values; for inhibitory activity against α-glucosidase (in words): SAR discussion
T1 construct: purchased Sigma-Aldrich
Procedure: Appropriate enzyme concentration was obtained in potassium phosphate buffer (pH 6.8, 50 mM), and coumarin-indole hybrids 4a–m were dissolved in DMSO (10% final concentration). […] The percentage of enzyme inhibition (% Inhibition) for each sample was calculated by using the following formula: %Inhibition=[(Abs control-Abs sample)/Abs control]×100
IC50 values were calculated from non-linear regression curve using by the Logit method.

[2] = target: T1, yeast α-glucosidase; experiment: Kinetic study (Lineweaver–Burk plot) on α-glucosidase; type: biochemical
Procedure: To determine the mechanism of α-glucosidase inhibition of the newly synthesized compounds, the kinetic study was performed on compound 4d as representative compound. The relative velocity of the α-glucosidase was determined on four increasing concentrations of the p-nitrophenyl glucopyranoside as substrate. […] Then, the Lineweaver-Burke plot was depicted using the reciprocal of velocity and substrate concentration (Fig. 2a).
Fig. 2 Kinetic study of compound 4d into α-glucosidase. a The Lineweaver–Burk plot in the absence and presence of different concentrations of compound 4d; b The secondary plot between Km and various concentrations of compound 4d
Appropriate enzyme concentration was obtained in potassium phosphate buffer (pH 6.8, 50 mM), and coumarin-indole hybrids 4a–m were dissolved in DMSO (10% final concentration). The potassium phosphate buffer (135 µL), various concentrations of the target compounds 4a–m (20 µL), and prepared enzyme solution (20 µL) were added to the 96-well plate and the later mixture was incubated for 10 min at 37 °C. […] Finally, the change in absorbance of the final mixture was measured at 405 nm by using spectrophotometer (Gen5, Power wave xs2, BioTek, America). […] The percentage of enzyme inhibition (% Inhibition) for each sample was calculated by using the following formula: %Inhibition=[(Abs control-Abs sample)/Abs control]×100

T1 sequence (P53341 whole entry): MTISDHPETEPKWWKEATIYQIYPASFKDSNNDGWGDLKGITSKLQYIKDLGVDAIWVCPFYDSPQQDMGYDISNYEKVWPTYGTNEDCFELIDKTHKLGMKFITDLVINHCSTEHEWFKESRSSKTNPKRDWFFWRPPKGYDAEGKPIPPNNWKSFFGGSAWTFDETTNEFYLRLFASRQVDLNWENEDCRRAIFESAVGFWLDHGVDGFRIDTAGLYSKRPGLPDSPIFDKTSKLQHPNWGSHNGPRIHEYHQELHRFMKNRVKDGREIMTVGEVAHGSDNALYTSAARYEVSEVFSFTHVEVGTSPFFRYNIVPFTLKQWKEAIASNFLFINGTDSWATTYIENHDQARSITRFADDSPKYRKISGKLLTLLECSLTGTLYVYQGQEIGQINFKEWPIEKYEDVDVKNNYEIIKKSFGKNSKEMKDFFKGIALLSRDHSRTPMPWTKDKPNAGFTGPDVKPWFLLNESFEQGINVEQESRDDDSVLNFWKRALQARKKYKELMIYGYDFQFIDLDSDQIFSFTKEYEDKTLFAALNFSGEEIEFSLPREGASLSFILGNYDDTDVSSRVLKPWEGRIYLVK

SMILES | IC50 [1] [µM] | melting point [°C] | potency relative to acarbose [1] | inhibitory activity against α-glucosidase (in words) [1] | Ki [2] [µM] | type of inhibition ([2]; Lineweaver–Burk plot, inhibitor 0, 28, 58 and 116 µM)
O=c1oc2ccccc2c(O)c1C(c1ccc(Cl)cc1)c1c[nH]c2ccccc12 (stereo not drawn) [Compound 4j, 3-((4-Chlorophenyl)(1H-indol-3-yl)methyl)-4-hydroxy-2H-chromen-2-one] | 230 ± 2.3 | 235 to 237 |  |  |  | 
O=c1oc2ccccc2c(O)c1C(c1ccccc1)c1c[nH]c2ccccc12 (stereo not drawn) [Compound 4a, 3-((1H-indol-3-yl)(phenyl)methyl)-4-hydroxy-2H-chromen-2-one] | 118 ± 3.1 | 231 to 233 | around sixfold |  |  | 
O=c1oc2ccccc2c(O)c1C(c1cccc(Cl)c1)c1c[nH]c2ccccc12 (stereo not drawn) [Compound 4i, 3-((3-Chlorophenyl)(1H-indol-3-yl)methyl)-4-hydroxy-2H-chromen-2-one] | > 750 | 205 to 207 |  | loss of effect |  | 
O=c1oc2ccccc2c(O)c1C(c1cccc(Br)c1)c1c[nH]c2ccccc12 (stereo not drawn) [Compound 4k, 3-((3-Bromophenyl)(1H-indol-3-yl)methyl)-4-hydroxy-2H-chromen-2-one] | > 750 | 212 to 214 |  | did not show activity |  | 
COc1ccc(C(c2c(O)c3ccccc3oc2=O)c2c[nH]c3ccccc23)cc1 (stereo not drawn) [Compound 4c, 3-((1H-indol-3-yl)(4-methoxyphenyl)methyl)-4-hydroxy-2H-chromen-2-one] | 170 ± 2.1 | 246 to 248 |  |  |  | 
O=c1oc2ccccc2c(O)c1C(c1cccc(F)c1)c1c[nH]c2ccccc12 (stereo not drawn) [Compound 4g, 3-((3-Fluorophenyl)(1H-indol-3-yl)methyl)-4-hydroxy-2H-chromen-2-one] | 174 ± 2.3 | 222 to 224 |  |  |  | 
O=c1oc2ccccc2c(O)c1C(c1ccccc1[N+](=O)[O-])c1c[nH]c2ccccc12 (stereo not drawn) [Compound 4l, 3-((1H-indol-3-yl)(2-nitrophenyl)methyl)-4-hydroxy-2H-chromen-2-one] | > 750 | 240 to 242 |  | completely abolished anti-α-glucosidase activity |  | 
Cc1ccc(C(c2c(O)c3ccccc3oc2=O)c2c[nH]c3ccccc23)cc1 (stereo not drawn) [Compound 4b, 3-((1H-indol-3-yl)(p-tolyl)methyl)-4-hydroxy-2H-chromen-2-one] | 167.5 ± 0.8 | 269 to 271 |  |  |  | 
O=c1oc2ccccc2c(O)c1C(c1cccc(Oc2ccccc2)c1)c1c[nH]c2ccccc12 (stereo not drawn) [Compound 4d, 3-((1H-indol-3-yl)(3-phenoxyphenyl)methyl)-4-hydroxy-2H-chromen-2-one] | 116 ± 0.7 | 183 to 185 | around sixfold |  | 148 | competitive type of inhibition
O=c1oc2ccccc2c(O)c1C(c1cccc(O)c1)c1c[nH]c2ccccc12 (stereo not drawn) [Compound 4e, 4-Hydroxy-3-((3-hydroxyphenyl)(1H-indol-3-yl)methyl)-2H-chromen-2-one] | > 750 | 200 to 202 |  | loss of effect |  | 
O=c1oc2ccccc2c(O)c1C(c1ccc(O)cc1)c1c[nH]c2ccccc12 (stereo not drawn) [Compound 4f, 4-Hydroxy-3-((4-hydroxyphenyl)(1H-indol-3-yl)methyl)-2H-chromen-2-one] | > 750 | 286 to 288 |  | loss of effect |  | 
O=c1oc2ccccc2c(O)c1C(c1cccc([N+](=O)[O-])c1)c1c[nH]c2ccccc12 (stereo not drawn) [Compound 4m, 3-((1H-indol-3-yl)(3-nitrophenyl)methyl)-4-hydroxy-2H-chromen-2-one] | 180.5 ± 1.4 | 198 to 200 |  |  |  | 
O=c1oc2ccccc2c(O)c1C(c1ccc(F)cc1)c1c[nH]c2ccccc12 (stereo not drawn) [Compound 4h, 3-((4-Fluorophenyl)(1H-indol-3-yl)methyl)-4-hydroxy-2H-chromen-2-one] | 474.9 ± 2.6 | 243 to 245 |  | dramatically decrease in inhibitory activity |  | 
